The text below walks through data of patent US6727265B2, “Phenoxyethyl-thiourea-pyridine compounds and their use for treatment of HIV-infections” (Parker Hughes Institute, priority 2000, dated 2004).

Like-named read-outs stand apart in the source and are kept apart here. Bounds are passed on as bounds.

The subject of data set [1] is HIV-1 strain HTLVIIIB
Kind of data set: anti-HIV activity: inhibition of replication of HIV-1 strain HTLVIIIB in PBMC. Type of data set: cell-based. As to conditions: for inhibition at 1 µM: at concentrations ≧1 μM; for IC50: read-out: IC50 [HTLVHIB].

The target of data set [2] is purified recombinant HIV RT (Human immunodeficiency virus type 1 group M subtype B, UniProt P03366). Description: biochemical.
Data set [3] can be described thus: cytotoxicity (CC50). Format: cell-based. As to conditions: CC50 values.
Where [4] appears, read: Human immunodeficiency virus 1, PBMC.
[5] abbreviates: Human immunodeficiency virus 1, peripheral blood mononuclear cells (PBMC) from healthy volunteer donors.

By inhibition is commonly meant how much of the control response was suppressed. Low readings indicate a weak effect, high ones a strong effect. In general, IC50 refers to the midpoint of a concentration-inhibition curve. By melting point is commonly meant the temperature, or range, at which the solid turns liquid. In the case of `S=C(NCCOc1ccccc1)Nc1ccc(Br)cn1` [IV, N-[2-(Phenoxy)ethyl]-N′-[2-(5-bromopyridyl)]thiourea], the melting point is 162 to 163 °C. The compound also came in with an inhibition at 1 µM in data set [1] (setting [4]) of 100%. For the same compound, the IC50 in data set [1] (setting [5]) was found to be 5 nM. Moreover, the half-inhibitory concentration (IC50) in data set [2] was 1500 nM. Further, the CC in data set [3] was found to be 92 µM.

Consider `Oc1ccc(CCNC(=S)Nc2ccc(Br)cn2)cc1` [VII, reference compound], for which the IC50 is 3070 nM in data set [1] (setting [4]) and 87700 nM in data set [2]. In data set [3], the CC was above 100 µM.

As for `S=C(NCCOc1ccccc1)Nc1ccc(Cl)cn1` [III, N -[2-(Phenoxy)ethyl]-N′-[2-(5-chloropyridyl)]thiourea], 1 µM produced 100% inhibition in data set [1] (setting [4]). Also, the IC50 amounted to 4 nM in data set [1] (setting [5]) and 1500 nM in data set [2]. Moreover, in data set [3], the CC is above 100 µM.

`S=C(NCCOc1ccccc1)Nc1ccccn1` [II, N-[2-(Phenoxy)ethyl]-N′-[2-(pyridyl)]thiourea]: the inhibition at 1 µM in data set [1] (setting [4]) is 100%. Moreover, the IC50 turned out to be 5 nM in data set [1] (setting [5]) and 10100 nM in data set [2]. This compound also gave a CC in data set [3] of 55 µM.

Turning to `S=C(NCCc1ccc(Cl)cc1)Nc1ccc(Br)cn1` [V, reference compound], in data set [2], the half-maximal inhibitory concentration (IC50) worked out at 2500 nM.
